# From ChEMBL document CHEMBL1201861, “Genomics of Drug Sensitity in Cancer screening data, Wellcome Trust Sanger Institute”
# What was measured:
# LU-165 = experiment: cells; format: functional, cell-based; settings: Homo sapiens
# Description: SANGER: Inhibition of human LU-165 cell growth in a cell viability assay.
# CHP-126 = experiment: cells; format: functional, cell-based; settings: Homo sapiens
# Description: SANGER: Inhibition of human CHP-126 cell growth in a cell viability assay.
# NCI-H64 = experiment: cells; format: functional, cell-based; settings: Homo sapiens;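 note: growth inhibition of NCI-H64 cells, read out with a cell viability assay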
# Description: SANGER: Inhibition of human NCI-H64 cell growth in a cell viability assay.
# CESS = experiment: SANGER: Inhibition of human CESS cell growth in a cell viability assay.; format: functional, cell-based
# NB14 = experiment: cells; format: functional, cell-based; settings: Homo sapiens;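 note: growth inhibition of NB14 cells measured with a cell viability assay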
# Description: SANGER: Inhibition of human NB14 cell growth in a cell viability assay.
# SCC-3 = experiment: cells; format: functional, cell-based; settings: Homo sapiens;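 note: cell viability assay measuring inhibition of SCC-3 cell growth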
# Description: SANGER: Inhibition of human SCC-3 cell growth in a cell viability assay.
# SU-DHL-1 = experiment: SANGER: Inhibition of human SU-DHL-1 cell growth in a cell viability assay.; format: functional, cell-based
# NCI-H1882 = experiment: cells; format: functional, cell-based; settings: Homo sapiens;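 note: growth inhibition of the cell line, determined with a viability assay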
# Description: SANGER: Inhibition of human NCI-H1882 cell growth in a cell viability assay.
# NB17 = experiment: cells; format: functional, cell-based; settings: Homo sapiens;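 note: growth inhibition of NB17 cells, read out with a cell viability assay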
# Description: SANGER: Inhibition of human NB17 cell growth in a cell viability assay.
# RL = experiment: cells; format: functional, cell-based; settings: Homo sapiens
# Description: SANGER: Inhibition of human RL cell growth in a cell viability assay.
# SNU-C1 = experiment: cells; format: functional, cell-based; settings: Homo sapiens;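 note: growth inhibition of SNU-C1 human cells, read out by a cell viability assay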
# Description: SANGER: Inhibition of human SNU-C1 cell growth in a cell viability assay.
# NCI-H1963 = experiment: cells; format: functional, cell-based; settings: Homo sapiens;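 note: cell growth inhibition of the human line, determined with a cell viability assay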
# Description: SANGER: Inhibition of human NCI-H1963 cell growth in a cell viability assay.
# OPM-2 = experiment: cells; format: functional, cell-based; settings: Homo sapiens;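 note: growth of OPM-2 cells measured with a viability assay, IC50 for suppression of proliferation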
# Description: SANGER: Inhibition of human OPM-2 cell growth in a cell viability assay.
# MOLT-13 = experiment: cells; format: functional, cell-based; settings: Homo sapiens;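 note: IC50 for suppression of MOLT-13 cell growth, read out with a cell viability assay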
# Description: SANGER: Inhibition of human MOLT-13 cell growth in a cell viability assay.
# IMR-5 = experiment: cells; format: functional, cell-based; settings: Homo sapiens;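 note: growth inhibition of human IMR-5 cells, read out with a cell viability assay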
# Description: SANGER: Inhibition of human IMR-5 cell growth in a cell viability assay.
# K052 = experiment: cells; format: functional, cell-based; settings: Homo sapiens;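 note: Read-out from a cell viability assay, IC50 reflecting suppression of K052 cell growth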
# Description: SANGER: Inhibition of human K052 cell growth in a cell viability assay.
# A253 cell line = experiment: cells; format: functional, cell-based; settings: Homo sapiens;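 note: growth inhibition of A253 cells, read out with a cell viability assay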
# Description: SANGER: Inhibition of human A253 cell growth in a cell viability assay.
# ARH-77 = experiment: cells; format: functional, cell-based; settings: Homo sapiens;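 note: growth inhibition of ARH-77 cells, read out by a cell viability assay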
# Description: SANGER: Inhibition of human ARH-77 cell growth in a cell viability assay.
# HCC2157 = experiment: cells; format: functional, cell-based; settings: Homo sapiens;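 note: growth inhibition of the cancer cell line, read out as cell viability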
# Description: SANGER: Inhibition of human HCC2157 cell growth in a cell viability assay.
# NCI-H2141 = experiment: cells; format: functional, cell-based; settings: Homo sapiens;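 note: growth inhibition of human NCI-H2141 cells, read out with a cell viability assay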
# Description: SANGER: Inhibition of human NCI-H2141 cell growth in a cell viability assay.
# CAMA-1 = experiment: cells; format: functional, cell-based; settings: Homo sapiens;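 note: growth inhibition of CAMA-1 cells, read out with a cell viability assay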
# Description: SANGER: Inhibition of human CAMA-1 cell growth in a cell viability assay.
# C32 = experiment: cells; format: functional, cell-based; settings: Homo sapiens;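 note: cell viability assay, with IC50 reflecting inhibition of C32 cell growth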
# Description: SANGER: Inhibition of human C32 cell growth in a cell viability assay.
# HuP-T4 = experiment: cells; format: functional, cell-based; settings: Homo sapiens;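 note: cell viability assay measuring how much HuP-T4 cell growth is inhibited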
# Description: SANGER: Inhibition of human HuP-T4 cell growth in a cell viability assay.
# TYK-nu = experiment: cells; format: functional, cell-based; settings: Homo sapiens;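 note: growth inhibition of human TYK-nu cells, read out by a cell viability assay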
# Description: SANGER: Inhibition of human TYK-nu cell growth in a cell viability assay.
# CHP-212 = experiment: cells; format: functional, cell-based; settings: Homo sapiens
# Description: SANGER: Inhibition of human CHP-212 cell growth in a cell viability assay.
# AN3-CA = experiment: cells; format: functional, cell-based; settings: Homo sapiens;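 note: growth inhibition of human AN3-CA cells measured by a cell viability assay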
# Description: SANGER: Inhibition of human AN3-CA cell growth in a cell viability assay.
# SW780 = experiment: cells; format: functional, cell-based; settings: Homo sapiens;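 note: growth inhibition of the cells, read out with a cell viability assay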
# Description: SANGER: Inhibition of human SW780 cell growth in a cell viability assay.
# U2OS = experiment: cells; format: functional, cell-based, U-2-OS; settings: Homo sapiens;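 note: growth inhibition of human U-2-OS cells, determined with a cell viability assay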
# Description: SANGER: Inhibition of human U-2-OS cell growth in a cell viability assay.
# A204 = experiment: cells; format: functional, cell-based; settings: Homo sapiens;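 note: growth inhibition of human A204 cells, read out with a cell viability assay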
# Description: SANGER: Inhibition of human A204 cell growth in a cell viability assay.
# HSC-2 = experiment: cells; format: functional, cell-based; settings: Homo sapiens;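 note: growth inhibition of human HSC-2 cells, read out by a cell viability assay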
# Description: SANGER: Inhibition of human HSC-2 cell growth in a cell viability assay.
# Panc1005 = experiment: cells; format: functional, cell-based; settings: Homo sapiens;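 note: growth inhibition of human PANC-10-05 cells, measured by a cell viability assay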
# Description: SANGER: Inhibition of human PANC-10-05 cell growth in a cell viability assay.
# ABC-1 = experiment: cells; format: functional, cell-based; settings: Homo sapiens;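 note: growth inhibition of human ABC-1 cells, read out by a cell viability assay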
# Description: SANGER: Inhibition of human ABC-1 cell growth in a cell viability assay.
# T47D = experiment: cells; format: functional, cell-based; settings: Homo sapiens;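 note: growth inhibition of human T47D cells, measured with a cell viability assay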
# Description: SANGER: Inhibition of human T47D cell growth in a cell viability assay.
# GMS-10 = experiment: cells; format: functional, cell-based; settings: Homo sapiens;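 note: growth inhibition of GMS-10 cells, read out as cell viability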
# Description: SANGER: Inhibition of human GMS-10 cell growth in a cell viability assay.
# HCT-15 = experiment: cells; format: functional, cell-based; settings: Homo sapiens;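 note: cell viability readout, IC50 reflecting suppression of HCT-15 cell growth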
# Description: SANGER: Inhibition of human HCT-15 cell growth in a cell viability assay.
# MKN-45 = experiment: cells; format: functional, cell-based; settings: Homo sapiens;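 note: growth inhibition of human MKN-45 cells, measured with a cell viability assay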
# Description: SANGER: Inhibition of human MKN45 cell growth in a cell viability assay.
# MIA PaCa-2 = experiment: cells; format: functional, cell-based; settings: Homo sapiens;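 note: growth inhibition of MIA PaCa-2 cells, read out with a cell viability assay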
# Description: SANGER: Inhibition of human MIA-PaCa-2 cell growth in a cell viability assay.
# KYSE-450 = experiment: cells; format: functional, cell-based; settings: Homo sapiens;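 note: cell growth inhibition measured by a viability assay in human KYSE-450 cells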
# Description: SANGER: Inhibition of human KYSE-450 cell growth in a cell viability assay.
# HCC1395 = experiment: cells; format: functional, cell-based; settings: Homo sapiens;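 note: growth inhibition of HCC1395 cells, read out by a cell viability assay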
# Description: SANGER: Inhibition of human HCC1395 cell growth in a cell viability assay.
# UACC-62 = experiment: cells; format: functional, cell-based; settings: Homo sapiens;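 note: growth inhibition of human UACC-62 cells, read out by a cell viability assay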
# Description: SANGER: Inhibition of human UACC-62 cell growth in a cell viability assay.
# C3A = experiment: cells; format: functional, cell-based; settings: Homo sapiens;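 note: growth inhibition of C3A human cells, quantified with a cell viability readout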
# Description: SANGER: Inhibition of human C3A cell growth in a cell viability assay.
# HCC1954 = experiment: cells; format: functional, cell-based; settings: Homo sapiens;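 note: growth inhibition of human HCC1954 cells, read out with a cell viability assay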
# Description: SANGER: Inhibition of human HCC1954 cell growth in a cell viability assay.
# HSC-4 = experiment: cells; format: functional, cell-based; settings: Homo sapiens;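 note: growth inhibition of human HSC-4 cells, read out with a cell viability assay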
# Description: SANGER: Inhibition of human HSC-4 cell growth in a cell viability assay.
# EGI-1 = experiment: cells; format: functional, cell-based; settings: Homo sapiens;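 note: cell viability readout used to gauge growth inhibition of EGI-1 cells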
# Description: SANGER: Inhibition of human EGI-1 cell growth in a cell viability assay.
# MDA-MB-415 = experiment: cells; format: functional, cell-based; settings: Homo sapiens
# ASPC1 = experiment: cells; format: functional, cell-based; settings: Homo sapiens;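 note: growth inhibition of AsPC-1 cells, read out with a cell viability assay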
# Description: SANGER: Inhibition of human AsPC-1 cell growth in a cell viability assay.
# HT1197 = experiment: cells; format: functional, cell-based, HT-1197; settings: Homo sapiens
# Description: SANGER: Inhibition of human HT-1197 cell growth in a cell viability assay.
# SK-MEL3 = experiment: cells; format: functional, cell-based, SK-MEL-3; settings: Homo sapiens;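 note: growth inhibition of human SK-MEL-3 cells, read out with a cell viability assay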
# Description: SANGER: Inhibition of human SK-MEL-3 cell growth in a cell viability assay.
# RPMI-7951 = experiment: cells; format: functional, cell-based; settings: Homo sapiens
# Description: SANGER: Inhibition of human RPMI-7951 cell growth in a cell viability assay.
# Calu-3 = experiment: cells; format: functional, cell-based; settings: Homo sapiens;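 note: growth inhibition of human Calu-3 cells, determined with a cell viability assay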
# Description: SANGER: Inhibition of human Calu-3 cell growth in a cell viability assay.
# SW-620 = experiment: cells; format: functional, cell-based; settings: Homo sapiens;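 note: growth inhibition of human SW-620 cells, measured by a cell viability assay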
# Description: SANGER: Inhibition of human SW620 cell growth in a cell viability assay.
# SK-LU-1 = experiment: cells; format: functional, cell-based; settings: Homo sapiens;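 note: cell viability assay measuring growth inhibition of human SK-LU-1 cells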
# Description: SANGER: Inhibition of human SK-LU-1 cell growth in a cell viability assay.
# BFTC-909 = experiment: cells; format: functional, cell-based; settings: Homo sapiens
# Description: SANGER: Inhibition of human BFTC-909 cell growth in a cell viability assay.
# CAL-62 = experiment: cells; format: functional, cell-based; settings: Homo sapiens;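 note: growth inhibition of CAL-62 cells, read out with a cell viability assay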
# Description: SANGER: Inhibition of human CAL-62 cell growth in a cell viability assay.
# Daoy = experiment: cells; format: functional, cell-based; settings: Homo sapiens;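 note: daoy cell growth inhibition, read out as cell viability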
# Description: SANGER: Inhibition of human Daoy cell growth in a cell viability assay.
# CAPAN-1 = experiment: cells; format: functional, cell-based; settings: Homo sapiens;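 note: growth suppression of CAPAN-1 cells, read out by a cell viability assay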
# Description: SANGER: Inhibition of human CAPAN-1 cell growth in a cell viability assay.
# KYSE-270 = experiment: cells; format: functional, cell-based; settings: Homo sapiens;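 note: cell growth inhibition measured with a viability assay in the human KYSE-270 line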
# Description: SANGER: Inhibition of human KYSE-270 cell growth in a cell viability assay.
# SK-MEL-28 = experiment: cells; format: functional, cell-based; settings: Homo sapiens;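 note: growth inhibition of human SK-MEL-28 cells, read out with a cell viability assay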
# Description: SANGER: Inhibition of human SK-MEL-28 cell growth in a cell viability assay.
# MEL-JUSO = experiment: cells; format: functional, cell-based; settings: Homo sapiens;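 note: growth inhibition of human MEL-JUSO cells, read out with a cell viability assay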
# Description: SANGER: Inhibition of human MEL-JUSO cell growth in a cell viability assay.
# BXPC-3 = experiment: cells; format: functional, cell-based; settings: Homo sapiens
# Description: SANGER: Inhibition of human BxPC-3 cell growth in a cell viability assay.
# G-361 = experiment: cells; format: functional, cell-based; settings: Homo sapiens
# FaDu = experiment: cells; format: functional, cell-based; settings: Homo sapiens
# Description: SANGER: Inhibition of human FADU cell growth in a cell viability assay.
# IGR-1 = experiment: cells; format: functional, cell-based; settings: Homo sapiens
# Description: SANGER: Inhibition of human IGR-1 cell growth in a cell viability assay.
# RCM-1 = experiment: cells; format: functional, cell-based; settings: Homo sapiens
# Description: SANGER: Inhibition of human RCM-1 cell growth in a cell viability assay.
# NCI-H650 = experiment: cells; format: functional, cell-based; settings: Homo sapiens
# Description: SANGER: Inhibition of human NCI-H650 cell growth in a cell viability assay.
structure (smiles),measurement,setting,value
CCn1c(-c2nonc2N)nc2cnc(Oc3cccc(NC(=O)c4ccc(OCCN5CCOCC5)cc4)c3)cc21 [GSK-269962A],IC50,LU-165,> 2.5 µM
same,IC50,CHP-126,> 2.5 µM
same,IC50,NCI-H64,> 2.5 µM
same,IC50,CESS,> 2.5 µM
same,IC50,NB14,> 2.5 µM
same,IC50,SCC-3,> 2.5 µM
same,IC50,SU-DHL-1,> 2.5 µM
same,IC50,NCI-H1882,> 2.5 µM
same,IC50,NB17,> 2.5 µM
same,IC50,RL,> 2.5 µM
same,IC50,SNU-C1,> 2.5 µM
same,IC50,NCI-H1963,1.28 µM
same,IC50,OPM-2,> 2.5 µM
same,IC50,MOLT-13,> 2.5 µM
same,IC50,IMR-5,> 2.5 µM
same,IC50,K052,0.753 µM
same,IC50,A253 cell line,> 2.5 µM
same,IC50,ARH-77,> 2.5 µM
same,IC50,HCC2157,> 2.5 µM
same,IC50,NCI-H2141,> 2.5 µM
COc1cc(C)c(Sc2cnc(NC(=O)c3ccc(CNC(C)C(C)(C)C)cc3)s2)cc1C(=O)N1CCN(C(C)=O)CC1 (configuration not stated),IC50,LU-165,> 10.2 µM
same,IC50,CHP-126,> 10.2 µM
same,IC50,NCI-H64,> 10.2 µM
same,IC50,CESS,> 10.2 µM
same,IC50,NB14,> 10.2 µM
same,IC50,SCC-3,> 10.2 µM
same,IC50,SU-DHL-1,> 10.2 µM
same,IC50,NCI-H1882,> 10.2 µM
same,IC50,NB17,8.92 µM
same,IC50,RL,> 10.2 µM
same,IC50,SNU-C1,> 10.2 µM
same,IC50,NCI-H1963,> 10.2 µM
same,IC50,OPM-2,8.91 µM
same,IC50,MOLT-13,> 10.2 µM
same,IC50,IMR-5,> 10.2 µM
same,IC50,K052,> 10.2 µM
same,IC50,A253 cell line,> 10.2 µM
same,IC50,ARH-77,> 10.2 µM
same,IC50,HCC2157,> 10.2 µM
same,IC50,NCI-H2141,> 10.2 µM
C[C@]1(c2nc3c(C(N)=O)cccc3[nH]2)CCCN1 [VELIPARIB],IC50,CAMA-1,> 5 µM
same,IC50,C32,> 5 µM
same,IC50,HuP-T4,> 5 µM
same,IC50,TYK-nu,> 5 µM
same,IC50,CHP-212,> 5 µM
same,IC50,AN3-CA,> 5 µM
same,IC50,SW780,> 5 µM
same,IC50,U2OS,> 5 µM
same,IC50,A204,> 5 µM
same,IC50,HSC-2,> 5 µM
same,IC50,NB14,> 5 µM
same,IC50,Panc1005,> 5 µM
same,IC50,ABC-1,> 5 µM
same,IC50,T47D,> 5 µM
same,IC50,GMS-10,> 5 µM
same,IC50,HCT-15,> 5 µM
same,IC50,MKN-45,> 5 µM
same,IC50,MIA PaCa-2,> 5 µM
same,IC50,KYSE-450,> 5 µM
same,IC50,HCC1395,> 5 µM
same,IC50,UACC-62,> 5 µM
same,IC50,C3A,> 5 µM
same,IC50,HCC1954,> 5 µM
same,IC50,HSC-4,> 5 µM
same,IC50,NB17,> 5 µM
same,IC50,EGI-1,> 5 µM
same,IC50,MDA-MB-415,> 5 µM
same,IC50,ASPC1,> 5 µM
same,IC50,HT1197,> 5 µM
same,IC50,SK-MEL3,> 5 µM
same,IC50,RPMI-7951,> 5 µM
same,IC50,Calu-3,> 5 µM
same,IC50,SW-620,> 5 µM
same,IC50,MOLT-13,> 5 µM
same,IC50,SK-LU-1,> 5 µM
same,IC50,BFTC-909,> 5 µM
same,IC50,CAL-62,> 5 µM
same,IC50,Daoy,> 5 µM
same,IC50,CAPAN-1,> 5 µM
same,IC50,KYSE-270,> 5 µM
same,IC50,SK-MEL-28,> 5 µM
same,IC50,MEL-JUSO,> 5 µM
same,IC50,BXPC-3,> 5 µM
same,IC50,G-361,> 5 µM
same,IC50,FaDu,> 5 µM
same,IC50,IGR-1,> 5 µM
same,IC50,RCM-1,> 5 µM
same,IC50,NCI-H650,> 5 µM
Cc1ccc(NC(=O)c2cccc(C(C)(C)C#N)c2)cc1Nc1ccc2ncn(C)c(=O)c2c1,IC50,LU-165,> 4 µM
same,IC50,CHP-126,> 4 µM
same,IC50,NCI-H64,> 4 µM
same,IC50,CESS,> 4 µM
same,IC50,NB14,0.493 µM
same,IC50,SCC-3,> 4 µM
same,IC50,SU-DHL-1,3.53 µM
same,IC50,NCI-H1882,> 4 µM
same,IC50,NB17,> 4 µM
same,IC50,RL,> 4 µM
same,IC50,SNU-C1,> 4 µM
same,IC50,NCI-H1963,> 4 µM
same,IC50,OPM-2,3.03 µM
same,IC50,MOLT-13,> 4 µM
same,IC50,IMR-5,> 4 µM
same,IC50,A253 cell line,> 4 µM
same,IC50,ARH-77,> 4 µM
same,IC50,HCC2157,> 4 µM
same,IC50,NCI-H2141,> 4 µM
Cc1[nH]c(/C=C2\C(=O)Nc3ccc(S(=O)(=O)Cc4c(Cl)cccc4Cl)cc32)c(C)c1C(=O)N1CCC[C@@H]1CN1CCCC1 [PHA-665752],IC50,LU-165,> 2 µM
same,IC50,CHP-126,> 2 µM
same,IC50,NCI-H64,> 2 µM
same,IC50,CESS,> 2 µM
same,IC50,NB14,> 2 µM
same,IC50,SCC-3,> 2 µM
same,IC50,SU-DHL-1,> 2 µM
same,IC50,NCI-H1882,> 2 µM
same,IC50,NB17,> 2 µM
same,IC50,RL,> 2 µM
same,IC50,SNU-C1,> 2 µM
same,IC50,NCI-H1963,> 2 µM
same,IC50,OPM-2,> 2 µM
same,IC50,MOLT-13,> 2 µM
same,IC50,IMR-5,> 2 µM
same,IC50,K052,> 2 µM
same,IC50,A253 cell line,> 2 µM
same,IC50,ARH-77,> 2 µM
same,IC50,HCC2157,> 2 µM
same,IC50,NCI-H2141,> 2 µM
